In publication PMC6154344, “Hibiscus sabdariffa L. and Its Bioactive Constituents Exhibit Antiviral Activity against HSV-2 and Anti-Enzymatic Properties against Urease by an ESI-MS Based Assay” (Molecules : A Journal of Synthetic Chemistry and Natural …, 2017):

Target: Urease (Type III, from Canavalia ensiformis) (Canavalia ensiformis, UniProt P07374)
Test: ESI-MS (MRM) assay of urea depletion by purified urease, […] min pre-incubation with inhibitor
Assay type: biochemical

Urease (Type III, from Canavalia ensiformis), sequence (P07374 whole entry): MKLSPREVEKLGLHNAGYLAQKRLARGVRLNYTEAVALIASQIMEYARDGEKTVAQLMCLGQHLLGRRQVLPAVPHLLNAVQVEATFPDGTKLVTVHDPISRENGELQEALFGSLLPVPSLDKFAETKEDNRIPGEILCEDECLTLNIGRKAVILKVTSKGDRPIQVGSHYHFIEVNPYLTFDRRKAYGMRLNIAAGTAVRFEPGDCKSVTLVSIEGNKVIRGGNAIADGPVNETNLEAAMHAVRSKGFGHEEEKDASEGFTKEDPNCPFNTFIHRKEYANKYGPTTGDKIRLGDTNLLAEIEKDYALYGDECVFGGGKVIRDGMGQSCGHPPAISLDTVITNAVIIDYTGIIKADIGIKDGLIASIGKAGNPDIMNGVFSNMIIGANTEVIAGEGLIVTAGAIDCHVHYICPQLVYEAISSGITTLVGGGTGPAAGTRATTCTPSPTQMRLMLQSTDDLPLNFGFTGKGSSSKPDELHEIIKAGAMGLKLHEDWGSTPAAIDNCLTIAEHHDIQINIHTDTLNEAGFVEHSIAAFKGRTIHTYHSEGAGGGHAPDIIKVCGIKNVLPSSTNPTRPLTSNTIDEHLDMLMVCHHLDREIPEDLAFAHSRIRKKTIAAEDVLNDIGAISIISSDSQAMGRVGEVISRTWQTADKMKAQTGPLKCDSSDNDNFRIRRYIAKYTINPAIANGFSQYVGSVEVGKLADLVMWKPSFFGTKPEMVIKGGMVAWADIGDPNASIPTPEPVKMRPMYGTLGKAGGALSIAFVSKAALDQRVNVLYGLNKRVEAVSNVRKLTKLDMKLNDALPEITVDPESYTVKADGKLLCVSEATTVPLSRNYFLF

Work on CC(=O)NO [AHA, acetohydroxamic acid] yielded an IC50 of 4.3 µM.
